Measured values from patent US20240124528A1, “ANTAGONIST OF INTERLEUKIN-17B RECEPTOR (IL-17RB) AND USE THEREOF” (Academia Sinica, priority 2020, published 2024).

Key:
[1] = molecular target: T1, interaction between IL-17RB and MLK4 (Homo sapiens, UniProt Q5TCX8); assay: Co-immunoprecipitation of IL-17RB and MLK4 after peptide pretreatment and rIL-17B; assay type: cell-based; details: 293T cells expressing Flag-MLK4 and HA-IL-17RB; peptides 0, 0.1, 1, 10, 50, 100 ng/ml for 30 mins, then rIL-17B 30 mins
T1 construct: host or cells: 293T (HEK293T)
Text: FIGS. 7A to 7J include charts showing that disruption of the interaction between IL-17RB and MLK4 by the loop peptide blocks oncogenic progression. (FIG. 7A) Peptides TAT48-57 (Control) (SEQ ID NO: 21) and TAT-IL-17RB403-416 (Loop) (SEQ ID NO: 30) used for the following experiments. (FIG. 7B) Immunoblotting analysis of IL-17RB binding to MLK4 with Loop peptide treatment. 293T cells expressing Flag-MLK4 and HA-IL-17RB were pretreated with the control and loop peptides with different dose (0, 0.1, 1, 10, 50, 100 ng/ml) for 30 mins, and then added rIL-17B for 30 mins. The cell lysates were reciprocally co-immunoprecipitated with anti-Flag and anti-HA and blotted with the indicated antibodies or directly immunoblotted with the indicated antibodies as the input controls. […] CCL20 and TFF/mRNA expression of these cells were measured by RT-qPCR (n=3) (FIG. 7D), the same cells were for invasion assay (n=4) (FIG. 7E) and SACF assay (n=4) (FIG. 7F). […] (FIG. 7I) The experimental EKP mice (n=7 for each group) were euthanized at Day 56, and the metastatic tumor nodules in the lungs were counted. […]
Whole-cell lysates were prepared as previously described (6, 7). […] After extensive washing with diluted lysis buffer (0.01% Triton X-100), IL-17RB and its associated proteins were analyzed by immunoblotting analysis. […]

[2] = system: IL-17RB; assay: Immunoblotting/IP of IL-17B-induced IL-17RB signaling in CFPAC1 cells after peptide pretreatment; assay type: cell-based, human; details: CFPAC1 cells pretreated with peptides 30 mins, then rIL-17B 30 mins
Text: FIGS. 7A to 7J include charts showing that disruption of the interaction between IL-17RB and MLK4 by the loop peptide blocks oncogenic progression. (FIG. 7A) Peptides TAT48-57 (Control) (SEQ ID NO: 21) and TAT-IL-17RB403-416 (Loop) (SEQ ID NO: 30) used for the following experiments. (FIG. 7B) Immunoblotting analysis of IL-17RB binding to MLK4 with Loop peptide treatment. 293T cells expressing Flag-MLK4 and HA-IL-17RB were pretreated with the control and loop peptides with different dose (0, 0.1, 1, 10, 50, 100 ng/ml) for 30 mins, and then added rIL-17B for 30 mins. The cell lysates were reciprocally co-immunoprecipitated with anti-Flag and anti-HA and blotted with the indicated antibodies or directly immunoblotted with the indicated antibodies as the input controls. (FIG. 7C to FIG. 7F) CFPAC1cells were pretreated with the peptides for 30 mins and then added rIL-17B for 30 mins. The cell lysates were immunoblotted with the indicated antibodies or immunoprecipitated with anti-IL-17RB or control IgG and blotted with the indicated antibodies (FIG. 7C). CFPAC1 cells were pretreated with TAT48-57 or TAT-IL-17RB403-416 (50 ng/ml) 30 mins and then added rIL-17B for two hrs. CCL20 and TFF/mRNA expression of these cells were measured by RT-qPCR (n=3) (FIG. 7D), the same cells were for invasion assay (n=4) (FIG. 7E) and SACF assay (n=4) (FIG. 7F). (FIG. 7G) The scheme of the treatment of transgenic pancreatic cancer EKP mice (LSL-Kras^+/G12D; p53^+/−; Ela-Cre^ERT; plus cerulein) with the Loop peptides. (FIG. 7H) IHC images of pancreases stained with anti-P-Y447 antibody. Scale bars: 50 μm. The pancreas tissues were from EKP mice after treated with the control or loop peptides at Day 42. The Kras^+/+ mice (Kras^+/+; p53^+/−; Ela-Cre^ERT; plus cerulein) were used as the non-cancerous control. Boxes indicate the enlarged areas. (FIG. 7I) The experimental EKP mice (n=7 for each group) were euthanized at Day 56, and the metastatic tumor nodules in the lungs were counted. (FIG. 7J) Kaplan-Meier survival curve plot of the lifespans of the experimental EKP mice (n=7 for each group). […]

T1 sequence (Q5TCX8 whole entry): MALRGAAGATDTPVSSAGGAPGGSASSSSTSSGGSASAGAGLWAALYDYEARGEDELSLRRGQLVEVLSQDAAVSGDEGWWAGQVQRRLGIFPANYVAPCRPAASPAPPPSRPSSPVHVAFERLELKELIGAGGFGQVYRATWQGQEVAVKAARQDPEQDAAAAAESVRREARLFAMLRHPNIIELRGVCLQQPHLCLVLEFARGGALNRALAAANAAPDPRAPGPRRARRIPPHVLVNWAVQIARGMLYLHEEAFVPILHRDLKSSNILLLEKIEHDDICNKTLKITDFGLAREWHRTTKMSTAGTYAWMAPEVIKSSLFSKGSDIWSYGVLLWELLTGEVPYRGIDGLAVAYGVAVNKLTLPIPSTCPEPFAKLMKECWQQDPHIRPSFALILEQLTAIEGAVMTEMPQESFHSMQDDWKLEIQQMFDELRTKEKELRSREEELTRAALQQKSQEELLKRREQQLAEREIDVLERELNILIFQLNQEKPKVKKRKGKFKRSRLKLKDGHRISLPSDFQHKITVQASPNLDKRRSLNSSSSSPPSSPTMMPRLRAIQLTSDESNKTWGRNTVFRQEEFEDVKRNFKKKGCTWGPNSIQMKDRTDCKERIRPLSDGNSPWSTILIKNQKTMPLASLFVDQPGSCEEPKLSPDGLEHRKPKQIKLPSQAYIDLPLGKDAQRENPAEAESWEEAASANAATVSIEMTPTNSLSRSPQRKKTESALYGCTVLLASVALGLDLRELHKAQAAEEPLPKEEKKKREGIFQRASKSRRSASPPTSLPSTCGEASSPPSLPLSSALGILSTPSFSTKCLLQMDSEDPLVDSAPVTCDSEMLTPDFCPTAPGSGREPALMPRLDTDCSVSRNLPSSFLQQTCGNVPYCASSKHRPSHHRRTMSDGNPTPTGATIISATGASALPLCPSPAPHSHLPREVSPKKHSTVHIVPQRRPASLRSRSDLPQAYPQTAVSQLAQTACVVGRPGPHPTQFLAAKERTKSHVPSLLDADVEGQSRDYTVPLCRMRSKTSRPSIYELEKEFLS

“RKKRRQRRRVCDGTCGKSEGSPS (IL-17RB inhibitory peptide, fusion protein) [loop peptide]” was tested. Which “interaction between IL-17RB and MLK4 (co-IP)” value [1] did it give?
The value was “disrupted”.

What about the “ERK1/2 phosphorylation induced by IL-17B” value [2] of the same sequence?
The value was “abolished”.

What about the “tyrosine phosphorylation of IL-17RB induced by IL-17B” value [2] of the same sequence?
Its value is “abolished”.

And the “ubiquitination of IL-17RB induced by IL-17B” value [2]?
Its value is “abolished”.
